Assay results from ChEMBL document CHEMBL5604062, “ASAP - ZIKV NS2B-NS3 protease fluorescence dose response” (2024).

Target: Nonstructural protein 3 (Zika virus, UniProt A0A024AXB9)
Test: Functional biochemical assay to identify treatments for viral infectious disease that targets Zika NS2B-NS3 protease. Utilizing a direct enzyme activity measurement method, reading the fluorescence intensity is used to characterize the relative potency of inhibitors as IC50.
Parameters: species or system PRVABC59

Chain of Nonstructural protein 3 (A0A024AXB9 whole entry): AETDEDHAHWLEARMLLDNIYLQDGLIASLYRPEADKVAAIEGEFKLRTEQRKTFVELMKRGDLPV

Row | SMILES | IC50 [µM]
1 | NCc1cccc(NC(=O)[C@@H](NC(=O)OCc2ccccc2)C2CCN(S(=O)(=O)C3CCCC3)CC2)c1 | > 99.5
2 | NCc1cccc(NC(=O)c2cc(Cl)cc(-n3cccc3)c2)c1 | 2.7
3 | CC(C)c1noc2nc(C3CC3)cc(C(=O)Nc3cccc(CN)c3)c12 | > 99.5
4 | NCc1cccc(NC(=O)[C@@H](NC(=O)OCc2ccccc2)C2CCN(C(=O)C3CC3)CC2)c1 | > 99.5
5 | NCc1ccc(NS(=O)(=O)c2ccc(Oc3ccccc3Cl)cc2)cc1 | > 99.5
6 | CC(C)c1ncc(OC2CCC2)c(C(=O)Nc2cccc(CN)c2)n1 | > 99.5
7 | COc1ccc(F)cc1-c1ccc(S(=O)(=O)Nc2ccc(Cl)cc2C(N)=O)cc1 | 73.2
8 | NCc1cccc(NC(=O)[C@@H](NC(=O)OCc2ccccc2)C2CCN(Cc3cn[nH]c3)CC2)c1 | > 99.5
9 | C[C@@H]1CNC[C@H]1c1ccc(NC(=O)c2ccc3c(c2)SCCN3)cc1 | > 99.5
10 | Cc1c(CN)cccc1NS(=O)(=O)c1ccc(Oc2ccccc2Cl)cc1 | > 99.5
11 | N[C@H]1CCc2ncc(NS(=O)(=O)c3ccc(Oc4ccccc4Cl)cc3)cc2C1 | > 99.5
12 | O=C(Nc1cc(Cl)cc(C(=O)Nc2cccc([C@H]3CCCCN3)c2)c1)OCc1ccccc1 | 57.8
13 | Cc1nnsc1CN1CCC([C@@H](NC(=O)OCc2ccccc2)C(=O)Nc2cccc(CN)c2)CC1 | > 99.5
14 | N#Cc1ccc(N2CCN(Cc3c[nH]c4ccccc34)CC2)cc1 | 86.2
15 | NCc1cccc(NC(=O)[C@@H](NC(=O)OCc2ccccc2)C2CCN(Cc3cccnc3)CC2)c1 | > 99.5
16 | N#Cc1cc(Cl)cc(C(=O)Nc2cccc(CN)c2)c1 | 11
17 | Cc1cc(=O)c(C(=O)Nc2cccc(CN)c2)nn1-c1ccccc1C(F)(F)F | > 99.5
18 | C[C@H]1CCN1C(=O)Cn1ccnc(N2CC[C@H](CO)C2)c1=O | > 99.5
19 | NCc1ccncc1NS(=O)(=O)c1ccc(Oc2ccccc2Cl)cc1 | 94.2
20 | NCc1cccc(NC(=O)c2cc(Cl)ccc2Oc2cccc(Cl)c2)c1 | 61.7
21 | NCc1cccc(NC(=O)c2cc(C3CCCCC3)nc3ccc(F)cc23)c1 | > 99.5
22 | NCc1cccc(NC(=O)c2cccc(Oc3ccc(Cl)c(Cl)c3)n2)c1 | 39.4
23 | NCc1cccc(NC(=O)c2cc(C3CC3)nc3c(Cl)cnn23)c1 | > 99.5
24 | O=C(Cn1ccnc(N2CC[C@H](CO)C2)c1=O)N[C@H]1CCOC1 | > 99.5
25 | CCCOc1ccc2[nH]cc(CN3CCC(c4cscn4)CC3)c2c1 | > 99.5
26 | NCc1cccc(NC(=O)c2cccn3cc(CN4CCCC4)nc23)c1 | 16.4

Row | SMILES | IC50 [µM]
27 | CC(C)Oc1cc(CN)ccc1NS(=O)(=O)c1ccc(Oc2ccccc2Cl)cc1 | 64.4
28 | NCc1cccc(NC(=O)Cc2cccc(Oc3ccncc3Br)c2)c1 | > 99.5
29 | O=C(Nc1cc(Cl)cc(C(=O)Nc2ccnc(OC3CNC3)c2)c1)OCc1ccccc1 | 66.1
30 | NCc1cccc(/C=C/c2cc(Cl)cc(NC(=O)OCc3ccccc3)c2)c1 | 22.3
31 | CN1CCC[C@H]1COc1ccc([C@@H](NC(=O)OCc2ccccc2)C(=O)Nc2cccc(CN)c2)cc1 | > 99.5
32 | NCc1cccc(NC(=O)c2cccc3c2O[C@H](c2ccccc2)C(=O)N3)c1 | 56.4
33 | NS(=O)(=O)c1ccccc1N1CCN(Cc2c[nH]c3ccccc23)CC1 | > 99.5
34 | NCc1cccc(NC(=O)c2cc(C(F)(F)F)ccc2SC2CCCC2)c1 | 84.3
35 | CCOc1cccc(-c2ccc(S(=O)(=O)Nc3cc4c(cc3C(=O)O)CCC4)cc2)c1 | 14.2
36 | NCc1cccc(NC(=O)[C@@H](NC(=O)OCc2ccccc2)c2ccc(OCc3ccccn3)cc2)c1 | > 99.5
37 | Cc1ccc(Sc2ncccc2C(=O)Nc2cccc(CN)c2)cc1C | > 99.5
38 | CCOC(=O)Nc1cc(Cl)cc(C(=O)Nc2cccc(CN)c2)c1 | 3.2
39 | NCc1cccc(NC(=O)[C@@H](NC(=O)OCc2ccccc2)c2ccc(OCc3nc4c(s3)COCC4)cc2)c1 | 65.1
40 | COCCN(C)C(=O)Cn1ccnc(N2CC[C@@H](CO)C2)c1=O | > 99.5
41 | NCc1ccc(F)c(NC(=O)c2cc(Cl)cc(NC(=O)OCc3ccccc3)c2)c1 | 4.35
42 | NCc1cccc(NC(=O)[C@H](NC(=O)OCc2ccccc2)C2CCN(C(=O)Cn3ccnc3)CC2)c1 | > 99.5
43 | NC[C@@H](NC(=O)c1cc(Cl)cc(NC(=O)OCc2ccccc2)c1)c1ccccc1 | > 99.5
44 | CC(C)c1nn(-c2ccccc2)cc1C(=O)Nc1cccc(CN)c1 | > 99.5
45 | NC(=O)c1cc(Cl)ccc1NS(=O)(=O)c1ccc(-c2ccc(F)cc2)cc1 | 65.6
46 | NCc1cccc(NC(=O)c2cc(C3CC3)n3nccc3n2)c1 | > 99.5
47 | CC[C@H](CO)NC(=O)Cn1ccnc(N2CC[C@H](CO)C2)c1=O | > 99.5
48 | CC[C@H](C(=O)Nc1cccc(CN)c1)n1cc(Br)c(C(F)(F)F)n1 | > 99.5
49 | CC(C)(C)OC(=O)NCc1cc(Cl)cc(C(=O)O)c1 | > 99.5
50 | O=C1Nc2ccccc2[C@H]1N1CCC(c2nc3ccccc3s2)CC1 | > 99.5
51 | c1ccc(N2CCN(Cc3c[nH]c4ccccc34)CC2)nc1 | > 99.5
52 | c1ccc(COc2ccc3c(CN4CCC(c5cscn5)CC4)c[nH]c3c2)cc1 | > 99.5

Row | SMILES | IC50 [µM]
53 | NCc1cccc(NC(=O)[C@@H](NC(=O)OCc2ccccc2)C2CCN(S(=O)(=O)Cc3cscn3)CC2)c1 | > 99.5
54 | O=C(Nc1cc(Cl)cc(C(=O)NCC[C@H]2COCCN2)c1)OCc1ccccc1 | > 99.5
55 | CC(C)(C)Cn1c(=O)[nH]c2cccc(C(=O)Nc3cccc(CN)c3)c21 | 37.2
56 | CC(C)(C)NS(=O)(=O)c1cccc(C(=O)Nc2cccc(CN)c2)c1 | > 99.5
57 | Cn1nc(C2CC2)c2c(C(=O)Nc3cccc(CN)c3)cc(C3CC3)nc21 | > 99.5
58 | COCCCC(=O)N1CCC([C@H](NC(=O)OCc2ccccc2)C(=O)Nc2cccc(CN)c2)CC1 | > 99.5
59 | NCc1cccc(NC(=O)c2cc(C3CC3)nn2-c2ccccc2)c1 | > 99.5
60 | NCc1cccc(NC(=O)[C@@H](NC(=O)OCc2ccccc2)c2ccc(OC[C@H]3CCS(=O)(=O)C3)cc2)c1 | > 99.5
61 | CCC1(NC(=O)Cn2ccnc(N3CC[C@@H](CO)C3)c2=O)CC1 | > 99.5
62 | NCc1cccc(NC(=O)c2cc(Cl)cc(Cl)c2O)c1 | > 99.5
63 | CCCn1nc(C)c2c(C(=O)Nc3cccc(CN)c3)cc(C)nc21 | > 99.5
64 | CCC1CN(C(=O)Cn2ccnc(N3CC[C@@H](CO)C3)c2=O)C1 | > 99.5
65 | Cc1ccc(S(=O)(=O)N2CCC([C@@H](NC(=O)OCc3ccccc3)C(=O)Nc3cccc(CN)c3)CC2)c(C)c1 | 71.9
66 | NCc1cccc(NC(=O)[C@@H](NC(=O)OCc2ccccc2)C2CCN(S(=O)(=O)[C@H]3CCOC3)CC2)c1 | > 99.5
67 | CC(=O)Nc1cc(Cl)cc(C(=O)Nc2cccc(CN)c2)c1 | 3.52
68 | NCc1cccc(NC(=O)[C@@H](NC(=O)OCc2ccccc2)C2CCN(S(=O)(=O)Cc3ncon3)CC2)c1 | > 99.5
69 | CNCc1cccc(NC(=O)c2cc(Cl)cc(NC(=O)OCc3ccccc3)c2)c1 | 19.6
70 | NCc1cccc(NC(=O)[C@@H](NC(=O)OCc2ccccc2)C2CCN(C3CCOCC3)CC2)c1 | > 99.5
71 | Clc1ccc2c(CN3CCC(c4c[nH]c5ncccc45)CC3)c[nH]c2c1 | 24.9
72 | Cc1ccc(C(=O)Nc2cccc(CN)c2)cc1NC(=O)Cc1ccncc1 | > 99.5
73 | c1cncc(-c2cccc(NCc3c[nH]c4ccccc34)c2)c1 | > 99.5
74 | NCc1cccc(NC(=O)c2cc(C(F)(F)F)nn2CC2CCC2)c1 | > 99.5
75 | COCC(=O)N1CCC([C@@H](NC(=O)OCc2ccccc2)C(=O)Nc2cccc(CN)c2)CC1 | > 99.5
76 | CCCC(=O)Nc1cc(Cl)cc(C(=O)Nc2cccc(CN)c2)c1 | 4.37
77 | C[C@H]1CCCCN1C(=O)Cn1ccnc(N2CC[C@@H](CO)C2)c1=O | > 99.5
78 | NCc1cccc(NC(=O)c2cc(C3CC3)n3nc(C(F)(F)F)cc3n2)c1 | > 99.5

Row | SMILES | IC50 [µM]
79 | O=C(O)c1cc(Cl)cc(NS(=O)(=O)c2ccc(-c3ccc(F)cc3)cc2)c1 | 75.7
80 | NCc1cccc(NC(=O)c2c(C(F)F)nc3cnccn23)c1 | > 99.5
81 | CNC(=O)CN1CCC([C@@H](NC(=O)OCc2ccccc2)C(=O)Nc2cccc(CN)c2)CC1 | > 99.5
82 | Cc1ccc(NC(=O)c2cc(Cl)ccc2Cl)c(C(=O)Nc2cccc(CN)c2)c1 | 53.9
83 | CC(C)S(=O)(=O)N1CCC([C@@H](NC(=O)OCc2ccccc2)C(=O)Nc2cccc(CN)c2)CC1 | > 99.5
84 | CS(=O)(=O)N1CCC([C@@H](NC(=O)OCc2ccccc2)C(=O)Nc2cccc(CN)c2)CC1 | > 99.5
85 | O=C(Nc1cc(Cl)cc(C(=O)Nc2ccc3c(c2)CNCCO3)c1)OCc1ccccc1 | 7.69
86 | O=c1[nH]c2cccc(N3CCN(Cc4c[nH]c5ccccc45)CC3)c2o1 | > 99.5
87 | NCc1cccc(NC(=O)[C@@H](NC(=O)OCc2ccccc2)c2ccc(OCCN3CCCCC3)cc2)c1 | > 99.5
88 | Cc1cc(C(=O)Nc2cccc(CN)c2)cc(NC(=O)OCc2ccccc2)c1Cl | 39
89 | N[C@@H]1CC[C@H](NC(=O)c2cc(Cl)cc(NC(=O)OCc3ccccc3)c2)C1 | 45.3
90 | CN(c1ccc(Oc2ccccc2Cl)cc1)S(=O)(=O)c1cc(F)c(Cl)cc1C(=O)O | > 99.5
91 | CCCCCn1cc(C(=O)Nc2cccc(CN)c2)c2ccccc21 | 70.4
92 | NCc1cccc(NC(=O)[C@@H](NC(=O)OCc2ccccc2)c2ccc(OCc3cnccn3)cc2)c1 | > 99.5
93 | NCc1cc(F)cc(NC(=O)c2cc(Cl)cc(NC(=O)OCc3ccccc3)c2)c1 | 5.86
94 | Cc1cc(C(=O)Nc2cccc(CN)c2)nc2c(C(C)C)cnn12 | > 99.5
95 | Cc1noc(C)c1Cc1ccc(C(=O)Nc2cccc(CN)c2)o1 | > 99.5
96 | CN1CCC(COc2ccc([C@@H](NC(=O)OCc3ccccc3)C(=O)Nc3cccc(CN)c3)cc2)CC1 | 82.3
97 | NS(=O)(=O)c1cccc(N2CCN(Cc3c[nH]c4ccccc34)CC2)c1 | > 99.5
98 | NCc1cccc(NC(=O)c2nn(-c3ccc(Cl)c(F)c3)c3c2CCC3)c1 | 36.9
99 | CCC[C@H](Oc1ccc(Cl)cc1C)C(=O)Nc1cccc(CN)c1 | > 99.5
100 | CCCN(C)CC(=O)N1CCC([C@@H](NC(=O)OCc2ccccc2)C(=O)Nc2cccc(CN)c2)CC1 | > 99.5
101 | Cc1csc(N2CCN(Cc3c[nH]c4ccccc34)CC2)n1 | > 99.5
102 | C[C@@H](N)c1cccc(NC(=O)c2cc(Cl)cc(NC(=O)OCc3ccccc3)c2)c1 | 22.7
